The target in the assay is T1, ΔF508-CFTR (Homo sapiens, UniProt P13569, DEL508-508).
T1 construct: expressed in transfected cells
As to the kind of experiment: Membrane potential optical assay (FRET/VIPR), identification of correction compounds. It is filed as cell-based. Summed up: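 NIH3T3 cells stably expressing ΔF508-CFTR incubated 16 hrs at 37° C in serum-free medium with test compound; 27° C incubation as positive control. CFTR then activated with 10 μM forskolin plus 20 μM genistein in Cl^−-free medium; depolarization read by DiSBAC2(3)/CC2-DMPE FRET on VIPR.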

Molecules are shown by their SMILES.

As usually defined, the EC50 is the concentration at which the effect is half-maximal. By Emax is commonly meant the maximal effect, on the per cent scale that the assay sets.

T1 sequence (P13569 with tags, fused parts or gaps DEL508-508): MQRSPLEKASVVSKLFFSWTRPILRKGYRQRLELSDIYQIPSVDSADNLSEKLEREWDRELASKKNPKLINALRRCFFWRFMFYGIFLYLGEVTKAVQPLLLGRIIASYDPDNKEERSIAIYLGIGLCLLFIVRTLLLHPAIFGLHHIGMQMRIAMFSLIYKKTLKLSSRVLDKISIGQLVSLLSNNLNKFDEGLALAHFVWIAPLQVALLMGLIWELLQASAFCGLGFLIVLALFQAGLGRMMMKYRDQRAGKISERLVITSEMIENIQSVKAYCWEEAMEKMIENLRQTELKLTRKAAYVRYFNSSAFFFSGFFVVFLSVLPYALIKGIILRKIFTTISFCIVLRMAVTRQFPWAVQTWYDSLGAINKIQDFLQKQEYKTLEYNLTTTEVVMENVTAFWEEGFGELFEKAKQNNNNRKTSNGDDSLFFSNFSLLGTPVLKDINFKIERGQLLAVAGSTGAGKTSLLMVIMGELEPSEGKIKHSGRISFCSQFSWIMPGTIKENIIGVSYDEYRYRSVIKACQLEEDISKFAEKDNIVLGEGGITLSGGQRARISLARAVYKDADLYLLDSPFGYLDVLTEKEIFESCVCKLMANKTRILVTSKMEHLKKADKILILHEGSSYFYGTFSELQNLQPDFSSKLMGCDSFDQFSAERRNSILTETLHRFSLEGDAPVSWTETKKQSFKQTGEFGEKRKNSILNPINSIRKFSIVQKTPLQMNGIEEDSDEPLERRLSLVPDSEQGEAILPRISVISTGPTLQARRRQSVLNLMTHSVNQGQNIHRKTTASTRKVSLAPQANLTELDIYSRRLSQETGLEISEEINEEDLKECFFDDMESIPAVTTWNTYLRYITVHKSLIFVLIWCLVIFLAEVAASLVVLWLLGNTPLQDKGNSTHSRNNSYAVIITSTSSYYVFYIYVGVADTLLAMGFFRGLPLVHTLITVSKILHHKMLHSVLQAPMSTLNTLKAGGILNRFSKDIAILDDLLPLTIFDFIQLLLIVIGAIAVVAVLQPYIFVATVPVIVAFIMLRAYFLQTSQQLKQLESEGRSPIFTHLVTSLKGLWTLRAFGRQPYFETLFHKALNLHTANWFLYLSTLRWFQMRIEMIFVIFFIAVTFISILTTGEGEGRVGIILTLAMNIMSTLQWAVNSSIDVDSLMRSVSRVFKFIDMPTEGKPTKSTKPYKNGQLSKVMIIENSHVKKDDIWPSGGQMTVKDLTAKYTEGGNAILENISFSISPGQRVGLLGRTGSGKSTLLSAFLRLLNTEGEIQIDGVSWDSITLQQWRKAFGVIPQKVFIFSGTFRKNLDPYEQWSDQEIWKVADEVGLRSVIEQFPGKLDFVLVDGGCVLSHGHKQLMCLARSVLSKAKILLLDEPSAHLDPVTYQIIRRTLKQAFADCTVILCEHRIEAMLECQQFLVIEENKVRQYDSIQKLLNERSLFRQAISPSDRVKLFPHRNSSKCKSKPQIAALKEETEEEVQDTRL

Turning to `CNC(=O)c1cnc(C(C)N2CCN(S(=O)(=O)c3ccc(OC)cc3)CC2)nc1N1CCCCC1` (stereo not drawn) [compound 357], the concentration for a half-maximal effect (EC50) was 25 to 60 µM. In addition, the maximal effect (Emax) (relative efficacy) was 25 to 100%.
For the molecule `CC(c1nc2ccccc2c(=O)n1C)N(C)CCNS(=O)(=O)c1ccc(Cl)cc1` (stereo not drawn) [compound 238], the EC50 lay within 25 to 60 µM. Further, the maximal effect (Emax) (relative efficacy) is below 25%.
With `CCCn1c(C(C)N2CCN(C(=O)c3ccc4ccccc4c3)CC2)nc2ccccc2c1=O` (stereo not drawn) [compound 30], the EC50 lay in the range of 25 to 60 µM. Under “relative efficacy”, the Emax lay within 25 to 100%.
Regarding `C[C@@H](c1nc(N2CCCCC2)c2ccccc2n1)N1CCN(S(=O)(=O)c2ccc(Cl)cc2)CC1` [compound 380], the EC50 was below 10 µM. The Emax (relative efficacy) was above 100%.
Take `COc1ccc(S(=O)(=O)N2CCN(C(C)c3nc(OC4CCCC4)c4ccccc4n3)CC2)cc1` (stereo not drawn) [compound 397]: the concentration giving a half-maximal response (EC50) was in the range of 10 to 25 µM. Under “relative efficacy”, the “% Efficacy” value is given as “++ (“++” means between 25% to 100%)”.
As for `CC(c1nc2ccccc2c(=O)n1C)N1CCC(N)CC1` (stereo not drawn) [compound 180], the EC50 lay within 25 to 60 µM. In addition, the maximal effect (Emax) (relative efficacy) is below 25%.
The like results for `CC(c1nc2ccccc2c(=O)n1C)N1CCN(S(=O)(=O)c2cccc(Cl)c2)CC1` (stereo not drawn) [compound 61] were, in that order, 10 to 25 µM and 25 to 100%.
The like results for `Cc1cccc(S(=O)(=O)N2CCN(C(C)c3nc4cc(Cl)ccc4c(=O)n3C)CC2)c1` (stereo not drawn) [compound 96] were, in that order, below 10 µM and 25 to 100%.
For `COC(=O)c1sccc1S(=O)(=O)N1CCN(C(C)c2nc3ccccc3c(=O)n2C)CC1` (stereo not drawn) [compound 256], the 50% effective concentration (EC50) was in the range of 25 to 60 µM. Also, the maximal response (Emax) (relative efficacy) was below 25%.
For the molecule `CC(c1nc(N(C)C)c2ccccc2n1)N1CCN(S(=O)(=O)c2ccc(Cl)cc2)CC1` (stereo not drawn) [compound 233], the 50% effective concentration (EC50) is 25 to 60 µM. In addition, where the note is “relative efficacy”, the Emax fell in the range of 25 to 100%.
As to `C=Cc1ccc(S(=O)(=O)N2CCN(C(C)c3nc4ccccc4c(=O)n3C)CC2)cc1` (stereo not drawn) [compound 244], the EC50 was in the range of 25 to 60 µM. Further, for the setting “relative efficacy”, the Emax was 25 to 100%.
Regarding `COc1ccc(S(=O)(=O)N2CCN(C(C)c3nc(OC(C)(C)C)c4ccccc4n3)CC2)cc1` (stereo not drawn) [compound 311], the concentration giving a half-maximal response (EC50) is below 10 µM. Also, for the setting “relative efficacy”, the Emax is above 100%.
For the molecule `COc1ccc(S(=O)(=O)N2CCN(C(C)c3nc(N4CCC(CCO)CC4)c4ccccc4n3)CC2)cc1` (stereo not drawn) [compound 363], the EC50 was 10 to 25 µM. Moreover, the Emax (relative efficacy) is above 100%.
As to `COc1ccc(S(=O)(=O)N2CCN(C(C)c3nc(NCc4ccccc4)c4ccccc4n3)CC2)cc1` (stereo not drawn) [compound 367], the EC50 was below 10 µM. The maximal response (Emax) (relative efficacy) was 25 to 100%.
For the molecule `COc1ccc2nc(C(C)N3CCN(S(=O)(=O)c4ccc(Br)cc4)CC3)n(C)c(=O)c2c1` (stereo not drawn) [compound 132], the EC50 is below 10 µM. Also, the Emax (relative efficacy) was above 100%.
Regarding `Cc1ccc(S(=O)(=O)N2CCN(C(C)c3nc4ccc(S(C)(=O)=O)cc4c(=O)n3C)CC2)cc1` (stereo not drawn) [compound 139], the EC50 was 10 to 25 µM. Further, where the note is “relative efficacy”, the maximal response (Emax) is 25 to 100%.
The like results for `Cc1cccc(CC(=O)N2CCN(C(C)c3nc4cc(Cl)ccc4c(=O)n3C)CC2)c1` (stereo not drawn) [compound 113] were, in that order, 10 to 25 µM and below 25%.
For `CC(c1nc2ccccc2c(=O)n1C)N1CCN(S(=O)(=O)c2ccc(Oc3ccccc3)cc2)CC1` (stereo not drawn) [compound 255] the same measures were 25 to 60 µM and below 25%.
For the molecule `CC(c1nc2ccccc2c(=O)n1C)N1CCN(S(=O)(=O)c2ccccc2C#N)CC1` (stereo not drawn) [compound 259], the concentration for a half-maximal effect (EC50) is 25 to 60 µM. In addition, under “relative efficacy”, the Emax was below 25%.
For the molecule `CC(c1nc2ccccc2c(=O)n1C)N1CCN(C(=O)c2ccccc2Cl)CC1` (stereo not drawn) [compound 82], the EC50 lay in the range of 25 to 60 µM. The Emax (relative efficacy) was below 25%.
`CCCC(c1nc2ccccc2c(=O)n1CC)N1CCN(S(=O)(=O)c2ccc(OC)cc2)CC1` (stereo not drawn) [compound 341]: the EC50 is below 10 µM. In addition, the Emax (relative efficacy) was above 100%.
`COc1ccc(S(=O)(=O)N2CCN(C(C)c3nc(N4CC(C)CC(C)C4)c4ccccc4n3)CC2)cc1` (stereo not drawn) [compound 316]: the concentration for a half-maximal effect (EC50) lay within 25 to 60 µM. Besides, the Emax (relative efficacy) lay in the range of 25 to 100%.
As for `CC(c1nc2ccc(Cl)cc2c(=O)n1C)N1CCN(C(=O)Nc2ccc(Cl)cc2)CC1` (stereo not drawn) [compound 18], the EC50 was 10 to 25 µM. Also, the maximum response (Emax) (relative efficacy) fell in the range of 25 to 100%.
For `COc1ccc(S(=O)(=O)N2CCN(C(C)c3nc4ccc(NC(C)=O)cc4c(=O)n3C)CC2)cc1` (stereo not drawn) [compound 155], the EC50 is below 10 µM. In addition, for the setting “relative efficacy”, the maximal effect (Emax) lay within 25 to 100%.
For `CC(c1nc2cc(Cl)ccc2c(=O)n1C)N1CCN(S(=O)(=O)c2ccc(S(C)(=O)=O)cc2)CC1` (stereo not drawn) [compound 110], the EC50 is 10 to 25 µM. Further, the Emax (relative efficacy) is below 25%.
Turning to `COc1ccc(S(=O)(=O)N2CCN(C(C)c3nc(N4CCC(C(=O)O)CC4)c4ccccc4n3)CC2)cc1` (stereo not drawn) [compound 370], the concentration for a half-maximal effect (EC50) was 25 to 60 µM. The Emax (relative efficacy) was below 25%.
Consider `COc1ccc(S(=O)(=O)NC2CCN(C(C)c3nc4ccccc4c(=O)n3C)CC2)cc1` (stereo not drawn) [compound 164], for which the EC50 is 25 to 60 µM. Further, for the setting “relative efficacy”, the maximal effect (Emax) is 25 to 100%.
The like results for `CC(C)c1ccc(S(=O)(=O)N2CCN(C(C)c3nc4ccccc4c(=O)n3C)CC2)cc1` (stereo not drawn) [compound 273] were, in that order, 25 to 60 µM and below 25%.
In the case of `CC(c1nc2ccccc2c(=O)n1C)N1CCN(S(=O)(=O)c2ccccc2)CC1` (stereo not drawn) [compound 68], the half-maximal effective concentration (EC50) lay within 25 to 60 µM. Further, for the setting “relative efficacy”, the maximum response (Emax) lay in the range of 25 to 100%.
Take `Cc1c(S(=O)(=O)N2CCN(C(C)c3nc4ccccc4c(=O)n3C)CC2)sc2ccc(F)cc12` (stereo not drawn) [compound 290]: the EC50 was 25 to 60 µM. Besides, the maximum response (Emax) (relative efficacy) fell in the range of 25 to 100%.
In the case of `CCCn1c(C(C)N2CCN(S(=O)(=O)c3ccc(F)cc3)CC2)nc2ccccc2c1=O` (stereo not drawn) [compound 28], the 50% effective concentration (EC50) lay within 10 to 25 µM. Besides, for the setting “relative efficacy”, the Emax was 25 to 100%.
For the molecule `CC(c1nc2ccccc2c(=O)n1C)N1CCN(S(=O)(=O)c2ccc(C(C)(C)C)cc2)CC1` (stereo not drawn) [compound 13], the EC50 is 25 to 60 µM. Besides, the maximal response (Emax) (relative efficacy) was below 25%.
For `Cc1ccccc1S(=O)(=O)N1CCN(C(C)c2nc3cc(Cl)ccc3c(=O)n2C)CC1` (stereo not drawn) [compound 109] the same measures were 10 to 25 µM and 25 to 100%.
For `COc1ccc(S(=O)(=O)N2CCN(C(C)c3nc(N4CC[C@@H](NC(C)=O)C4)c4ccccc4n3)CC2)cc1` (stereo partly drawn) [compound 394], the EC50 lay in the range of 25 to 60 µM. Also, the maximal effect (Emax) (relative efficacy) lay in the range of 25 to 100%.
Consider `COc1ccc(S(=O)(=O)N2CCN(C(C)c3ncc(Br)c(=O)[nH]3)CC2)cc1` (stereo not drawn) [compound 378], for which the EC50 was in the range of 25 to 60 µM. Under “relative efficacy”, the Emax is below 25%.
Take `CCCn1c(C(C)N2CCN(C(=O)Nc3ccc(OC)cc3OC)CC2)nc2ccccc2c1=O` (stereo not drawn) [compound 25]: the EC50 is 25 to 60 µM. Further, the Emax (relative efficacy) was below 25%.
Consider `COc1ccc(S(=O)(=O)N2CCN(C(C)c3ncc4ccccc4n3)CC2)cc1` (stereo not drawn) [compound 312], for which the half-maximal effective concentration (EC50) is 25 to 60 µM. The maximal effect (Emax) (relative efficacy) is 25 to 100%.
Take `CC(=O)c1ccc(S(=O)(=O)N2CCN(C(C)c3nc4ccccc4c(=O)n3C)CC2)cc1` (stereo not drawn) [compound 239]: the half-maximal effective concentration (EC50) lay in the range of 25 to 60 µM. Under “relative efficacy”, the maximum response (Emax) is below 25%.
`COc1ccc(S(=O)(=O)N2CCN(C(C)c3ncc(Br)c(OC4CCCC4)n3)CC2)cc1` (stereo not drawn) [compound 381]: the half-maximal effective concentration (EC50) was below 10 µM. The Emax (relative efficacy) is above 100%.
Consider `CCCOc1nc(C(C)N2CCN(S(=O)(=O)c3ccc(Br)cc3)CC2)nc2ccccc12` (stereo not drawn) [compound 216], for which the concentration giving a half-maximal response (EC50) was below 10 µM. For the same molecule, the maximum response (Emax) (relative efficacy) was above 100%.
Consider `CC(c1nc2ccc(Cl)cc2c(=O)n1C)N1CCN(S(=O)(=O)c2ccc(Br)cc2)CC1` (stereo not drawn) [compound 42], for which the EC50 was below 10 µM. The Emax (relative efficacy) fell in the range of 25 to 100%.
For the molecule `COc1ccc(S(=O)(=O)N2CCN(C(C)c3nc(N(C)Cc4ccccc4)c4ccccc4n3)CC2)cc1` (stereo not drawn) [compound 368], the concentration for a half-maximal effect (EC50) is below 10 µM. Moreover, where the note is “relative efficacy”, the Emax was above 100%.
For `CC(c1nc2ccc(C#N)cc2c(=O)n1C)N1CCN(S(=O)(=O)c2ccc(Cl)cc2)CC1` (stereo not drawn) [compound 126] the same measures were 10 to 25 µM and 25 to 100%.
As to `Cc1cccc(NC(=O)N2CCN(C(C)c3nc4ccc(Cl)cc4c(=O)n3C)CC2C)c1` (stereo not drawn) [compound 1], the EC50 fell in the range of 25 to 60 µM. Besides, the maximal effect (Emax) (relative efficacy) was in the range of 25 to 100%.
With `COc1ccc(S(=O)(=O)N2CCN(C(C)c3nc(OC)c4ccccc4n3)CC2)cc1` (stereo not drawn) [compound 187], the EC50 is 25 to 60 µM. Besides, the Emax (relative efficacy) lay within 25 to 100%.
The like results for `CC(c1nc2ccccc2c(=O)n1C)N1CCN(S(=O)(=O)c2ccc(Br)cc2)CC1` (stereo not drawn) [compound 51] were, in that order, 10 to 25 µM and above 100%.
As for `CC(c1nc2ccccc2c(=O)n1C)N1CCN(S(=O)(=O)c2ccc(Cl)c3nonc23)CC1` (stereo not drawn) [compound 271], the EC50 is 25 to 60 µM. For the same molecule, where the note is “relative efficacy”, the Emax is below 25%.
In the case of `CC(c1nc2ccccc2c(=O)n1C)N1CCN(S(=O)(=O)c2ccc(OC(F)(F)F)cc2)CC1` (stereo not drawn) [compound 50], the half-maximal effective concentration (EC50) lay within 10 to 25 µM. The Emax (relative efficacy) was in the range of 25 to 100%.
The like results for `CC(c1nc2ccccc2c(=O)n1C)N1CCN(S(=O)(=O)c2cccc(C(=O)O)c2)CC1` (stereo not drawn) [compound 246] were, in that order, 25 to 60 µM and below 25%.
The like results for `CC(c1nc2ccccc2c(=O)n1C)N1CCN(S(=O)(=O)c2cc(S(=O)(=O)c3ccccc3)cs2)CC1` (stereo not drawn) [compound 263] were, in that order, 25 to 60 µM and below 25%.
The like results for `CCc1nc(N(C)C)c2ccccc2n1` [compound 159] were, in that order, 25 to 60 µM and below 25%.
On to `COc1ccc(S(=O)(=O)N2CCN(C(C)c3nc(OC4CCC(O)CC4)c4ccccc4n3)CC2)cc1` (stereo not drawn) [compound 343], for which the 50% effective concentration (EC50) is 25 to 60 µM. In addition, the maximal response (Emax) (relative efficacy) fell in the range of 25 to 100%.
Consider `CCc1nc2ccccc2c(=O)n1C` [compound 87], for which the concentration giving a half-maximal response (EC50) fell in the range of 25 to 60 µM. Where the note is “relative efficacy”, the Emax was below 25%.
On to `COc1ccc(S(=O)(=O)N2CCN(C(C)c3nc4ccc(N)cc4c(=O)n3C)CC2)cc1` (stereo not drawn) [compound 145], for which the 50% effective concentration (EC50) was 10 to 25 µM. Besides, the Emax (relative efficacy) fell in the range of 25 to 100%.

Values taken from US8642609B2, “Modulators of ATP-binding cassette transporters” (Vertex Pharmaceuticals Incorporated, priority 2003, dated 2014).
